Measurements taken from patent publication US12410153B2, “Compounds, compositions and methods” (Avalo Therapeutics, Inc., priority 2014, dated 2025).
Read-outs that look alike come from different tables or passages of the source.

Legend:
[1] = Acute depression model, forced swim test; format: in vivo, rat; settings: male, Sprague-Dawley, rat, plasma, read-out: plasma level at time of sampling
Experimental: (§1) Young, adult, male Sprague-Dawley rats were randomly assigned across the treatment groups and were administered vehicle (0.5% MC/0.02% SLS), the reference compound desipramine (20 mg/kg; a tricyclic antidepressant; Sigma, Lot #078K1326) dissolved in sterile water, or crystalline Form II of Compound (I) (0.1, 0.3, 1, 3, 10, and 30 mg/kg) suspended in 0.5% MC/0.02% SLS, twice on Day 1 (after habituation; ˜24 h prior to test, and prior to dark cycle) and once on Day 2 (30 min pre-test for desipramine and 45 min pre-test for Form II and vehicle).
(§2) Each Forced Swim chamber was constructed of clear acrylic (height, 40 cm; diameter, 20.3 cm). Rats were subjected to a pre-dose swim test of one 15-min session in cylinders containing water at 23° C.±1° C., followed approximately 24 h later by the experimental 5-min session. The water level was 16 cm deep during habituation and 30 cm deep during the test. Immobility, climbing, and swimming behaviors were recorded every 5 s for a total of 60 counts per subject. When an animal was unable to maintain a posture with its nose above water, it was immediately removed from the water and eliminated from the study. Blood was collected at the completion of swim test procedures and plasma was analyzed for Form II concentrations.

Sprague-Dawley rats = assay: Acute depression model, forced swim test; format: in vivo, rat; settings: for RO: corresponding to plasma level; for ED50: Rattus norvegicus
Experimental: as §1, §2

[2] = Human pharmacokinetic study, single ascending oral doses; format: in vivo; settings: for AUC(0-inf) / AUC(0-t) / Cmax / Tmax / half-life: male, human, plasma, oral
Experimental: Twenty-four healthy, young male subjects were assigned to 1 of 3 sequential treatment panels (A, B, and C). For each panel of 8 subjects, 2 subjects received placebo and 6 subjects were administered single ascending oral doses of crystalline Form II of Compound (I) with a minimum 7-day washout between each dose: Panel A (0.1, 0.2, 0.5, 1, and 2 mg); Panel B (2, 4, 8, and 15 mg, and 4 mg with food); and Panel C (15 and 20 mg). Blood samples were collected pre-dose and 0.5, 1, 1.5, 2, 3, 4, 6, 9, 12, 18, 24, 30, 48, and 72 h post dose. Plasma samples were analyzed for Form II concentrations using reversed phase high performance liquid chromatography with tandem mass spectrometric detection (Merck Research Laboratories). The analytical range was 0.5 to 500 nM (0.180 to 180 ng/mL).

in vivo = settings: both, Sprague-Dawley, rat, po

SMILES: Cc1ccc(COC(=O)N2CC[C@H](CNc3ncccn3)[C@H](F)C2)cc1 [Form II, 4-methylbenzyl (3S, 4R)-3-fluoro-4-[(pyrimidin-2-ylamino)methyl] piperidine-1-carboxylate]
- concentration at 50 min ([1]; 0.1 mg/kg): ~0.015 µM
- concentration at 50 min ([1]; 0.3 mg/kg): ~0.12 µM
- concentration at 50 min ([1]; 1 mg/kg): ~0.39 µM
- concentration at 50 min ([1]; 3 mg/kg): ~1.42 µM
- concentration at 50 min ([1]; 10 mg/kg): ~4.7 µM
- concentration at 50 min ([1]; 30 mg/kg): ~14.1 µM
- RO (Sprague-Dawley rats; 0.1 mg/kg): approximately 5%
- RO (Sprague-Dawley rats; 0.3 mg/kg): ~29%
- RO (Sprague-Dawley rats; 1 mg/kg): ~56%
- RO (Sprague-Dawley rats; 3 mg/kg): ~83%
- RO (Sprague-Dawley rats; 10 mg/kg): ~94%
- RO (Sprague-Dawley rats; 30 mg/kg): ~98%
- climbing behavior (Sprague-Dawley rats; 1, 3, 10, and 30 mg/kg vs vehicle): did not affect climbing behavior except at the dose of 3 mg/kg
- immobility frequency (Sprague-Dawley rats; 1, 3, 10, and 30 mg/kg vs vehicle, P<0.001): significantly decreased
- swimming behavior (Sprague-Dawley rats; 1, 3, 10, and 30 mg/kg vs vehicle, P<0.01 (P<0.05 for 10 mg/kg)): significantly increased
- ED50 (Sprague-Dawley rats; read-out: ED50 for decrease in immobility): ~0.7 mg/kg
- ED50 (Sprague-Dawley rats; read-out: ED50 for increase in frequency of swimming): ~0.3 mg/kg
- RO corresponding to ED50 for immobility (Sprague-Dawley rats; rat, in vivo): ~50%
- RO corresponding to ED50 for swimming (Sprague-Dawley rats; rat, in vivo): ~30%
- decrease in Cmax, fed vs fasted ([2]; 4 mg): ~56%
- delay in Tmax, fed vs fasted ([2]; 4 mg): ~1 h
- overall extent of absorption (AUC), fed vs fasted ([2]; 4 mg): not affected
- AUC(0-inf) ([2]; 2 mg, fasted, mean): 493 ng·h/mL
- AUC(0-t) ([2]; 2 mg, fasted, mean): 398 ng·h/mL
- Cmax ([2]; 2 mg, fasted, mean): 51.5 ng/mL
- Tmax ([2]; 2 mg, fasted, mean, read-out: Tmax): 1.08 h
- half-life ([2]; 2 mg, fasted, mean, read-out: t1/2 (converted)): 16.1 h
- AUC(0-inf) ([2]; 4 mg, 4 mg (fed), mean): 1140 ng·h/mL
- AUC(0-t) ([2]; 4 mg, 4 mg (fed), mean): 1080 ng·h/mL
- Cmax ([2]; 4 mg, 4 mg (fed), mean): 80 ng/mL
- Tmax ([2]; 4 mg, 4 mg (fed), mean, read-out: Tmax): 2 h
- half-life ([2]; 4 mg, 4 mg (fed), mean, read-out: t1/2 (converted)): 17.3 h
- AUC(0-inf) ([2]; 4 mg, fasted, mean): 1110 ng·h/mL
- AUC(0-t) ([2]; 4 mg, fasted, mean): 1060 ng·h/mL
- Cmax ([2]; 4 mg, fasted, mean): 141 ng/mL
- Tmax ([2]; 4 mg, fasted, mean, read-out: Tmax): 0.67 h
- half-life ([2]; 4 mg, fasted, mean, read-out: t1/2 (converted)): 16.9 h
- AUC(0-inf) ([2]; 8 mg, fasted, mean): 2260 ng·h/mL
- AUC(0-t) ([2]; 8 mg, fasted, mean): 2150 ng·h/mL
- Cmax ([2]; 8 mg, fasted, mean): 212 ng/mL
- Tmax ([2]; 8 mg, fasted, mean, read-out: Tmax): 0.92 h
- half-life ([2]; 8 mg, fasted, mean, read-out: t1/2 (converted)): 17 h
- AUC(0-inf) ([2]; 15 mg, fasted, mean): 4400 ng·h/mL
- AUC(0-t) ([2]; 15 mg, fasted, mean): 3520 ng·h/mL
- Cmax ([2]; 15 mg, fasted, mean): 385 ng/mL
- Tmax ([2]; 15 mg, fasted, mean, read-out: Tmax): 1.04 h
- half-life ([2]; 15 mg, fasted, mean, read-out: t1/2 (converted)): 16.8 h
- AUC(0-inf) ([2]; 20 mg, fasted, mean): 5910 ng·h/mL
- AUC(0-t) ([2]; 20 mg, fasted, mean): 5590 ng·h/mL
- Cmax ([2]; 20 mg, fasted, mean): 590 ng/mL
- Tmax ([2]; 20 mg, fasted, mean, read-out: Tmax): 1 h
- half-life ([2]; 20 mg, fasted, mean, read-out: t1/2 (converted)): 15.9 h
- Tmax ([2]; across all fasted dose levels, read-out: mean Tmax): ≤ 1 h
- half-life ([2]; over the 4- to 20-mg dose range, read-out: terminal elimination half-life): 12 to 17 h
- Cmax and AUC vs dose ([2]; over the dose range studied): dose-proportional
- Cmax (in vivo; 10 mg/kg): ~4 µM
- Cmax (in vivo; 30 mg/kg): ~14 µM
- Cmax (in vivo; 100 mg/kg): ~26 µM
